Here are results for 1 molecule from PMC9016807, “Metabolic, Pharmacokinetic, and Activity Profile of the Liver Stage Antimalarial (RC-12)” (ACS Omega, 2022).

Series [1] can be described thus: Metabolism in rat liver microsomes. Type of series: in vitro ADME. The conditions noted are these: 1 μM substrate, NADPH. The protocol:
(§1) Following the protocols described by Charman et al.,[28]1 was incubated at 37 °C with human, rat, and rhesus monkey liver microsomes. For the determination of intrinsic clearance, the substrate concentration was 1 μM and the protein concentration was 0.4 mg/mL; for qualitative metabolite identification studies, the substrate and protein concentrations were 10 μM and 1 mg/mL, respectively. The reaction was initiated by the addition of an NADPH-regenerating buffer system, and the samples were incubated for up to 60 (for Clint determination) or 180 min (for additional metabolite identification). Samples without the test compound and without NADPH were also incubated and used as controls. The reaction was quenched by protein precipitation with the addition of an equal volume of ice-cold acetonitrile solution (containing diazepam as an internal standard), followed by vortexing and centrifugation for 3 min at 10000 rpm. The supernatant was removed and analyzed by LC/MS. LC/MS analysis was conducted using a Waters Micromass Xevo G2 QTOF MS coupled to a Waters Acquity UPLC. For metabolite identification, a Supelco Ascentis Express Amide column (50 × 2.1 mm, 2.7 μm) was used with an acetonitrile–water gradient (containing 0.05% formic acid), a flow rate of 0.4 mL/min, a gradient cycle time of 6 min, and an injection volume of 5 μL. MS analysis was conducted using positive mode electrospray ionization under MSE acquisition mode, which allows simultaneous acquisition of MS spectra at low and high collision energies. The identity of putative metabolites was confirmed by the accurate mass and a comparison of the retention times and MS/MS fragmentation patterns with authentic metabolites where available. For metabolite quantitation, the method described below for the analysis of plasma samples was used.

The next series concerns P. cynomolgi hypnozoites. Further details: method as in PMID 4091527. The note with it: cited from earlier work.
Series [2] is described as follows: Metabolism in rhesus monkey liver microsomes. Format: in vitro ADME. The note with it: rhesus monkey, liver microsomes; 1 μM substrate, 0.4 mg/mL microsomal protein, NADPH, 37 °C, 60 min; average of three replicates; read-out: CLint. The protocol:
as §1

In series [3] the test system is P. vivax liver-stage parasites. Kind of series: P. vivax liver-stage in vitro assay, radical cure mode. Format: cell-based, Plasmodium vivax. The note with it: 20 μM, two independent runs, threshold for activity 75% inhibition. As to the method: Compound 1 and its metabolites were tested in both prophylactic and radical cure modes for activity against P. vivax liver-stage parasites.[16],[17] In the prophylactic assay, compounds are added the day after sporozoite invasion into hepatocytes in order to characterize the compound activity against established liver forms with a parasitophorous vacuole membrane (as opposed to activity on preinvasion sporozoites) and prior to complete maturation of hypnozoites into drug-insensitive dormant forms, which appear at about 5 days postinvasion.[18] In the radical cure assay, compounds are added at day 5 postinfection to characterize activity against late-stage schizonts and mature PI4K inhibitor-insensitive hypnozoites.[19] In these experiments, the threshold for activity is 75% inhibition. […] Similarly, as previously described,[20] 10 μM concentrations of 1 and its metabolites were also tested for activity against P. cynomolgi schizont (large forms) and hypnozoite (small forms) liver-stage parasites cultured in rhesus monkey hepatocytes. In these experiments, the threshold for activity is 50% inhibition.
Compounds were prepared as 20 mM stock solutions in DMSO and tested in an eight-point semilog (1/3) dilution series from 20 μM in 384-well assay plates in both prophylactic and radical cure mode against P. vivax liver-stage parasites as previously described.[16] Following ethical approval from the Institutional Ethics Committee of the Thai Ministry of Public Health, the Ethical Review Committee of Faculty of Tropical Medicine, Mahidol University (TMEC 11-008 and 14-016), the Oxford Tropical Medicine Ethical Committee, Oxford University, England (OxTREC 17-11 and 40–14), and the Cambodian National Ethics Committee for Health Research (101NECHR), isolates of P. vivax infected blood were collected from patent volunteers in Tak province, Thailandm and Mondulkiri province, Cambodia. Samples were collected by venipuncture into heparin tubes prior to replacement of patient serum with nonimmune AB human serum and feeding to laboratory-reared Anopheles dirus cracens or An. dirus A mosquitoes via water-jacket artificial membrane feeders or the Hemotek insect feeding system (Hemotek, Blackburn, UK) set to maintain the bloodmeal temperature at 37 °C. […] Cryopreserved human hepatocytes (BioIVT, Baltimore, Maryland, USA) were thawed into InVitroGro CP Medium (BioIVT), quantified for viability by trypan blue dye exclusion, diluted to 800–1000 live cells per microliter, and 18000 live cells were plated into each well of a collagen-coated 384-well plate (Greiner, Monroe, NC, USA) by a 16-channel pipet (Finnpipette, Thermo Fisher Scientific, Waltham, MA). […]

Series [4] in a line: Metabolism in human liver microsomes. Format: in vitro ADME. The note with it: 1 μM substrate, NADPH. The protocol: as §1
(Liver microsomes are a subcellular fraction often used to study metabolism.)

Setting [5] is: 0.4 mg/mL protein, relative to initial substrate concentration.

Turning to `CCN(CC)CCN(CCN(CC)CC)c1cc(OC)c(OC)cc1Br` [Compound 1, 4-(2-bromo-4,5-dimethoxyphenyl)-1,1,7,7-tetraethyldiethylenetriamine], the “average substrate depletion over a 60 min incubation” value in series [1] (setting [5]) was around 90%; in series [4] (setting [5]), below 10%. The microsomal CLint at 1 μM in series [1] (rat, liver microsomes, 0.4 mg/mL microsomal protein, 37 °C, 60 min, average of three replicates, read-out: CLint) is 100 ± 2.6 µL/min/mg; in series [2], 23 ± 4.7 µL/min/mg; in series [4] (human, liver microsomes, 0.4 mg/mL microsomal protein, 37 °C, 60 min, average of three replicates, read-out: CLint) it was below 3 µL/min/mg. Besides, the “efficacy against hypnozoites relative to primaquine” value in the series with P. cynomolgi hypnozoites was “about 1 order of magnitude less effective than primaquine”. Further, in the series on P. cynomolgi hypnozoites, the hemolysis result is “produced no hemolysis”. Besides, the “toxicity relative to primaquine” value with P. cynomolgi hypnozoites was 1 order of magnitude less toxic. Further, in series [3], the “activity against schizonts or hypnozoites” value is on record as “no activity”.
